Values of other authors, collected in patent US6087087A, “Treatment of hemoglobin with nitric oxide” (Yonetani; Takashi, priority 1998, dated 2000).
Read-outs that look alike come from different tables or passages of the source.

Tests used:
blood of the rat = details: rat treated with nitroglycerin
Hb in rats = details: nitroglycerin-induced

Row | Compound | right shift of the O2 binding curve of blood (blood of the rat) | α-nitrosylHb formed, of the total heme of Hb (Hb in rats) | affinity of NO for Hb relative to CO (Hb (hemoglobin)) | affinity of NO for Hb relative to CO (Hb (hemoglobin); listed as nitric oxide)
1 | O=[N+]([O-])OCC(CO[N+](=O)[O-])O[N+](=O)[O-] [nitroglycerin] | approximately 10 torr | less than 2% |  | 
2 | nitric oxide [NO] |  |  | > 10^3 fold | more than a thousand-fold higher affinity
